The source of these data is paper PMC12071598, “Piperazine-Substituted Pyranopyridines Exhibit Antiproliferative Activity and Act as Inhibitors of HBV Virion Production” (International Journal of Molecular Sciences, 2025).

For test [1], the system named is GBM6138. The test is described as follows: Antiproliferative activity, MTT assay, GBM6138. The settings on record: low-passage glioblastoma GBM6138, 72 h. It counts as cell-based. For orientation: Tetrazolium dyes change colour on reduction, which living cells bring about.
Test [2] deals with GBM5522. The test is described as follows: Antiproliferative activity, MTT assay, GBM5522. The format is cell-based. The settings on record: low-passage glioblastoma GBM5522, 72 h.

Turning to `COc1ccccc1NC(=O)CSc1nc(N2CCNCC2)c2c(c1C#N)CC(C)(C)OC2` [DO11-48, 2-[(5-Cyano-3,3-dimethyl-8-piperazin-1-yl-3,4-dihydro-1H-pyrano[3,4-c]pyridin-6-yl)thio]-N-(2-methoxyphenyl)acetamide], the IC50 in test [1] worked out at 27.9 ± 2.6 µM; in test [2] it was 3.8 ± 1.5 µM.

As to `CC1(C)Cc2c(C#N)c(SCc3ccccc3Cl)nc(N3CCNCC3)c2CO1` [DO11-42, 6-[(2-Chlorobenzyl)thio]-3,3-dimethyl-8-piperazin-1-yl-3,4-dihydro-1H-pyrano[3,4-c]pyridine-5-carbonitrile], the figures for the IC50 in test [1] and in test [2] were 51.2 ± 10.7 µM and 4.2 ± 1.3 µM, respectively. The matching figures for `CC(=O)c1ccc(NC(=O)CSc2nc(N3CCNCC3)c3c(c2C#N)CC(C)(C)OC3)cc1` [DO11-50, N-(4-acetylphenyl)-2-[(5-cyano-3,3-dimethyl-8-piperazin-1-yl-3,4-dihydro-1H-pyrano[3,4-c]pyridin-6-yl)thio]acetamide]: 54.7 ± 28.7 µM and 15.9 ± 4.2 µM.

On to `CC1(C)Cc2c(C#N)c(SCC(N)=O)nc(N3CCNCC3)c2CO1` [DO11-37, 2-[(5-Cyano-3,3-dimethyl-8-piperazin-1-yl-3,4-dihydro-1H-pyrano[3,4-c]pyridin-6-yl)thio]acetamide], for which the figures for the IC50 in test [1] and in test [2] were 571 ± 77.7 µM and 309 ± 63.3 µM, respectively. As for `COc1cccc(NC(=O)CSc2nc(N3CCNCC3)c3c(c2C#N)CC(C)(C)OC3)c1` [DO11-47, 2-[(5-Cyano-3,3-dimethyl-8-piperazin-1-yl-3,4-dihydro-1H-pyrano[3,4-c]pyridin-6-yl)thio]-N-(3-methoxyphenyl)acetamide], the IC50 was 104 ± 22.1 µM in test [1] and 20 ± 6.8 µM in test [2]. Regarding `CNC(=O)c1cc(Oc2ccc(NC(=O)Nc3ccc(Cl)c(C(F)(F)F)c3)cc2)ccn1` [Sorafenib, reference compound], the midpoint of inhibition in test [2], the IC50, lay at 84 ± 14 µM.

A word on the IC50: it is the concentration needed to halve the response being measured.
